Reference: ChEMBL document CHEMBL1155850, “Synthesis and biological evaluation of a focused library of beauveriolides” (Bioorg Med Chem Lett, 2008)

Columns and labels:
Macrophage = experiment: Inhibition of cholesterol ester synthesis in mouse macrophages assessed as lipid droplet accumulation; type: functional, cell-based
[1] = target: T1, Sterol O-acyltransferase 1 (Mus musculus) (UniProt Q61263); experiment: Inhibition of ACAT in mouse liver microsomes at 20 uM; conditions: Microsome
T1 sequence (whole entry): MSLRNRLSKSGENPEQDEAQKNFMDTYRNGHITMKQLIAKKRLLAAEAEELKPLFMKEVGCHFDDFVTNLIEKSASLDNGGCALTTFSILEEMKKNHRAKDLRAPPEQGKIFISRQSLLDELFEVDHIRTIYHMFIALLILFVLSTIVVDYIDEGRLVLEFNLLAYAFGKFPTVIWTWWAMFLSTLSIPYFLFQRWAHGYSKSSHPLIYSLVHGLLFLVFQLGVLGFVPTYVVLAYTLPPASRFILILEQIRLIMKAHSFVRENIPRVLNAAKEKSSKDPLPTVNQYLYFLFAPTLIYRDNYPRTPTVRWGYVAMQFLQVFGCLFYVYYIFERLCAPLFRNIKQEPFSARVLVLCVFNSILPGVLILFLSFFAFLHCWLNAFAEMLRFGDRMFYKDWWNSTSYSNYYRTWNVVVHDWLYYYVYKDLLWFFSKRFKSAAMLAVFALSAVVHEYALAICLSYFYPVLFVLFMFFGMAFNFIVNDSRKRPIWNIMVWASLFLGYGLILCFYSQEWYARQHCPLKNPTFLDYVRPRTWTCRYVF

| IC50 (Macrophage) [nM] | inhibition [1] [%] | Structure (SMILES) |
| --- | --- | --- |
| > 20000 | 70 | CCCC[C@H](C)[C@@H]1CC(=O)N[C@H](Cc2ccccc2)C(=O)N[C@@H](C)C(=O)N[C@H]([C@H](C)CC)C(=O)O1 |
| > 20000 | 8 | CCCC[C@H](C)[C@@H]1CC(=O)N[C@H](Cc2ccccc2)C(=O)N[C@@H](CC(N)=O)C(=O)N[C@H](Cc2ccccc2)C(=O)O1 |
| 20 | 88 | CCCC[C@H](C)[C@@H]1CC(=O)N[C@@H](C(c2ccccc2)c2ccccc2)C(=O)N[C@@H](C)C(=O)N[C@H]([C@H](C)CC)C(=O)O1 |
| 70 | 93 | CCCC[C@H](C)[C@@H]1CC(=O)N[C@@H](C(c2ccccc2)c2ccccc2)C(=O)N[C@H](C)C(=O)N[C@H](CC(C)C)C(=O)O1 |
| 10000 | 94 | CCCC[C@H](C)[C@@H]1CC(=O)N[C@@H](Cc2ccccc2)C(=O)N[C@H](C)C(=O)N[C@H](Cc2ccccc2)C(=O)O1 |
| 20 | 91 | CCCC[C@H](C)[C@@H]1CC(=O)N[C@@H](C(c2ccccc2)c2ccccc2)C(=O)N[C@H](C)C(=O)N[C@H]([C@@H](C)CC)C(=O)O1 |
| > 20000 |  | CCCC[C@H](C)[C@@H]1CC(=O)N[C@H](Cc2ccccc2)C(=O)N[C@@H](CC(N)=O)C(=O)N[C@H](C[C@@H](C)CC)C(=O)O1 |
| > 20000 | 43 | CCCC[C@H](C)[C@@H]1CC(=O)N[C@@H](Cc2ccccc2)C(=O)N[C@@H](CC(N)=O)C(=O)N[C@H](CC(C)C)C(=O)O1 |
| 400 | 91 | CCCC[C@H](C)[C@@H]1CC(=O)N[C@@H](Cc2ccccc2)C(=O)N[C@@H](C)C(=O)N[C@H]([C@@H](C)CC)C(=O)O1 [BEAUVERIOLIDE III] |
| 480 | 98 | CCCC[C@H](C)[C@@H]1CC(=O)N[C@@H](Cc2ccccc2)C(=O)N[C@H](C)C(=O)N[C@H](CC(C)C)C(=O)O1 |
| 9300 | 79 | CCCC[C@H](C)[C@@H]1CC(=O)N[C@@H](Cc2ccccc2)C(=O)N[C@@H](CO)C(=O)N[C@H](Cc2ccccc2)C(=O)O1 |
| 800 | 94 | CCCC[C@H](C)[C@@H]1CC(=O)N[C@@H](Cc2ccccc2)C(=O)N[C@H](C)C(=O)N[C@H]([C@@H](C)CC)C(=O)O1 |
| 20 | 97 | CCCC[C@H](C)[C@@H]1CC(=O)N[C@@H](C(c2ccccc2)c2ccccc2)C(=O)N[C@H](C)C(=O)N[C@H]([C@H](C)CC)C(=O)O1 |
| 900 | 97 | CCCC[C@H](C)[C@@H]1CC(=O)N[C@@H](C(c2ccccc2)c2ccccc2)C(=O)N[C@@H](CC(N)=O)C(=O)N[C@H](Cc2ccccc2)C(=O)O1 |
| > 20000 | 47 | CCCC[C@H](C)[C@@H]1CC(=O)N[C@H](Cc2ccccc2)C(=O)N[C@@H](C)C(=O)N[C@H](Cc2ccccc2)C(=O)O1 |
| 650 | 96 | CCCC[C@H](C)[C@@H]1CC(=O)N[C@@H](Cc2ccccc2)C(=O)N[C@H](C)C(=O)N[C@H]([C@H](C)CC)C(=O)O1 |
| > 20000 | 70 | CCCC[C@H](C)[C@@H]1CC(=O)N[C@@H](C(c2ccccc2)c2ccccc2)C(=O)N[C@@H](CO)C(=O)N[C@H](CC(C)C)C(=O)O1 |
| > 20000 | 11 | CCCC[C@H](C)[C@@H]1CC(=O)N[C@@H](Cc2ccccc2)C(=O)N[C@@H](CC(N)=O)C(=O)N[C@H](Cc2ccccc2)C(=O)O1 |
| 40 | 95 | CCCC[C@H](C)[C@@H]1CC(=O)N[C@@H](C(c2ccccc2)c2ccccc2)C(=O)N[C@@H](C)C(=O)N[C@H]([C@@H](C)CC)C(=O)O1 |

| IC50 (Macrophage) [nM] | inhibition [1] [%] | Structure (SMILES) |
| --- | --- | --- |
| > 20000 | 20 | CCCC[C@H](C)[C@@H]1CC(=O)N[C@H](Cc2ccccc2)C(=O)N[C@@H](C)C(=O)N[C@H]([C@@H](C)CC)C(=O)O1 |
| > 20000 | 4 | CCCC[C@H](C)[C@@H]1CC(=O)N[C@H](Cc2ccccc2)C(=O)N[C@@H](CC(N)=O)C(=O)N[C@H](CC(C)C)C(=O)O1 |
| > 20000 | 40 | CCCC[C@H](C)[C@@H]1CC(=O)N[C@H](Cc2ccccc2)C(=O)N[C@@H](CO)C(=O)N[C@H](CC(C)C)C(=O)O1 |
| 600 | 95 | CCCC[C@H](C)[C@@H]1CC(=O)N[C@@H](Cc2ccccc2)C(=O)N[C@@H](C)C(=O)N[C@H](CC(C)C)C(=O)O1 [BEAUVERIOLIDE I] |
| 80 | 71 | CCCC[C@H](C)[C@@H]1CC(=O)N[C@@H](C(c2ccccc2)c2ccccc2)C(=O)N[C@@H](C)C(=O)N[C@H](Cc2ccccc2)C(=O)O1 |
| 12300 | 93 | CCCC[C@H](C)[C@@H]1CC(=O)N[C@@H](Cc2ccccc2)C(=O)N[C@@H](CO)C(=O)N[C@H](CC(C)C)C(=O)O1 |
| > 20000 | 87 | CCCC[C@H](C)[C@@H]1CC(=O)N[C@H](Cc2ccccc2)C(=O)N[C@@H](C)C(=O)N[C@H](CC(C)C)C(=O)O1 |
| 240 | 75 | CCCC[C@H](C)[C@@H]1CC(=O)N[C@@H](C(c2ccccc2)c2ccccc2)C(=O)N[C@H](C)C(=O)N[C@H](Cc2ccccc2)C(=O)O1 |
| 900 | 99 | CCCC[C@H](C)[C@@H]1CC(=O)N[C@H](Cc2ccccc2)C(=O)N[C@H](C)C(=O)N[C@H]([C@@H](C)CC)C(=O)O1 |
| 2000 | 98 | CCCC[C@H](C)[C@@H]1CC(=O)N[C@@H](C(c2ccccc2)c2ccccc2)C(=O)N[C@@H](CC(N)=O)C(=O)N[C@H](CC(C)C)C(=O)O1 |
| 80 | 83 | CCCC[C@H](C)[C@@H]1CC(=O)N[C@@H](C(c2ccccc2)c2ccccc2)C(=O)N[C@@H](C)C(=O)N[C@H](CC(C)C)C(=O)O1 |
| 7500 | 76 | CCCC[C@H](C)[C@@H]1CC(=O)N[C@@H](Cc2ccccc2)C(=O)N[C@@H](C)C(=O)N[C@H](Cc2ccccc2)C(=O)O1 |
| 300 | 60 | CCCC[C@H](C)[C@@H]1CC(=O)N[C@H](Cc2ccccc2)C(=O)N[C@H](C)C(=O)N[C@H](Cc2ccccc2)C(=O)O1 |
| 1000 | 96 | CCCC[C@H](C)[C@@H]1CC(=O)N[C@H](Cc2ccccc2)C(=O)N[C@H](C)C(=O)N[C@H](CC(C)C)C(=O)O1 |
| 2500 | 91 | CCCC[C@H](C)[C@@H]1CC(=O)N[C@H](Cc2ccccc2)C(=O)N[C@H](C)C(=O)N[C@H]([C@H](C)CC)C(=O)O1 |
| 160 | 96 | CCCC[C@H](C)[C@@H]1CC(=O)N[C@@H](C(c2ccccc2)c2ccccc2)C(=O)N[C@@H](CO)C(=O)N[C@H](Cc2ccccc2)C(=O)O1 |
| 110 | 95 | CCCC[C@H](C)[C@@H]1CC(=O)N[C@H](Cc2ccccc2)C(=O)N[C@@H](CO)C(=O)N[C@H](Cc2ccccc2)C(=O)O1 |
| 1700 | 80 | CCCC[C@H](C)[C@@H]1CC(=O)N[C@@H](Cc2ccccc2)C(=O)N[C@@H](C)C(=O)N[C@H]([C@H](C)CC)C(=O)O1 |
